Measurements published in patent US10538487B2, “Sulfonylureas and related compounds and use of same” (priority 2015, dated 2020).
Like-named read-outs stand apart in the source and are kept apart here.

What was measured:
[1] = biological target: NLRP3 inflammasome (Homo sapiens, UniProt Q96P20); assay: Inhibition of IL-1β release, NLRP3 inflammasome activation assay in HMDM; type: cell-based
Description: The following assays can be used to determine inhibitory activity of test compounds on the NLRP3 inflammasome using common stimuli such as adenosine triphosphate, nigericin, LeuLeu-OMe or monosodium urate crystals (MSU).
To generate HMDM, human monocytes are isolated from buffy coat blood using Ficoll-Plaque Plus (GE Healthcare) and density centrifugation. CD14^+ cell selection is performed using MACS magnetic beads (Miltenyl Biotec).
HMDM are seeded at 1×10^5/ml. […] Medium is removed and replaced with serum free medium (SFM) containing test compound 30 min prior to NLRP3 stimulation. […] ATP can be sourced from Sigma Aldrich, nigericin and MSU from Invivogen and LeuLeu-Ome from Chem-Impex International.
For ELISA and cell death assays cells are seeded in 96 well plates. Supernatants are removed and analysed using ELISA kits according to the manufacturer's instructions (DuoSet® R&D Systems, ReadySetGo!® eBioscience, BD OptEIA™, or Perkin Elmer AlphaLISA®). Cell death is assessed by measurement of LDH release relative to a 100% cell lysis control using the CytoTox96® non-radioactive cytotoxicity assay (Promega).

[2] = Single dose pharmacokinetic study in mice (iv 4 mg/Kg, po 20 mg/Kg), plasma concentration post-dosing; type: in vivo, mouse; conditions: mice, iv dose of 4 mg/Kg and po dose of 20 mg/Kg
Description: This is advantageous leading to comparatively lower doses or less frequent administration. The procedure followed was: Male C57BL/6 mice were used at 7-9 weeks age with 3 animals per group. Mice were dosed with test compound using single intravenous bolus or oral gavage. Blood samples were taken via submandibular or saphenous vein for analysis of plasma concentrations of compound by LC-MS/MS at the following timepoints: IV (3 mice): 0.083, 0.25, 0.5, 1, 2, 4, 8 and 24 hours post dosing, PO (3 mice): 0.25, 0.5, 1, 2, 4, 8 and 24 hours post dosing. LC-MS/MS method for the quantitative determination of test compound in corresponding biological matrix was developed. […] The results are shown graphically in FIGS. 1A to 1C (MCC950) and FIGS. 2A to 2C (MCC7840).

[3] = inhibition of IL-1β release, class symbols, read-out: Avg. IL-1β IC50 HMDM
[4] = commercial compounds (Table 9), read-out: HMDM IC50 vs NLRP3

NLRP3 inflammasome, sequence (Q96P20 whole entry): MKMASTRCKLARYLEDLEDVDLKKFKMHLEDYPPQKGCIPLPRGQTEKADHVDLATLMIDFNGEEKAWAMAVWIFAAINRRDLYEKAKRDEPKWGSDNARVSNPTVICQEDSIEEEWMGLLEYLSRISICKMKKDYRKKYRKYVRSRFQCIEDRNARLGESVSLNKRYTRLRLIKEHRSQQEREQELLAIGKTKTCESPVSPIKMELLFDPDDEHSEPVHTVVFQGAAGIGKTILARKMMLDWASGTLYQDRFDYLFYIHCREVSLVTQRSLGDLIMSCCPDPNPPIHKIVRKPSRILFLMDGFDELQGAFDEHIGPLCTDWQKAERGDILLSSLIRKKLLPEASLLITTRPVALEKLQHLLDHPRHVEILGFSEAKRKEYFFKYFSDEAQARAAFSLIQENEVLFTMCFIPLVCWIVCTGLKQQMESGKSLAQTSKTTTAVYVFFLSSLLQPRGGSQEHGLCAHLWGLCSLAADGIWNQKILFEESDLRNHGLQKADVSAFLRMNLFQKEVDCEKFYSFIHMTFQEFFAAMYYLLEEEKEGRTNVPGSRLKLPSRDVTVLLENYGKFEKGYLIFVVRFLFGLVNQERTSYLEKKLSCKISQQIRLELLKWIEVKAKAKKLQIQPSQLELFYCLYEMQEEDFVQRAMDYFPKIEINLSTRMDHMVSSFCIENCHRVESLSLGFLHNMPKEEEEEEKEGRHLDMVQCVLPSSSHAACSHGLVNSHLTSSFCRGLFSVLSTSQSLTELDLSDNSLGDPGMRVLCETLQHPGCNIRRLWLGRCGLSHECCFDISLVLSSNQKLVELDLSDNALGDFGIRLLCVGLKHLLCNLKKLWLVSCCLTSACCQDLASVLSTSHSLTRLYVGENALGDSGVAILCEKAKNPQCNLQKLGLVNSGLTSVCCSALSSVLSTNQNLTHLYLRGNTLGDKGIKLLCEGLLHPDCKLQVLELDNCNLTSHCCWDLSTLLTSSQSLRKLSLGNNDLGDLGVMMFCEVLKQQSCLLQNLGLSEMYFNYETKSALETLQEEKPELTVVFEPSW

`O=C(Nc1c2c(cc3c1CCC3)CCC2)NS(=O)(=O)c1ccn(Cc2ccccc2)n1` [1-benzyl-N-((1,2,3,5,6,7-hexahydro-s-indacen-4-yl)carbamoyl)-1H-pyrazole-3-sulfonamide] showed an IC50 [1, 3] of less than 10000 nM.

Molecule `O=C(Nc1c2c(cc3c1CCC3)CCC2)NS(=O)(=O)c1ccn(C2CCCCC2)n1` [1-cyclohexyl-N-((1,2,3,5,6,7-hexahydro-s-indacen-4-yl)carbamoyl)-1H-pyrazole-3-sulfonamide] has an IC50 [1, 3] of less than 1000 nM.

For `O=C(Nc1c2c(cc3c1CCC3)CCC2)NS(=O)(=O)c1ccn(C2CC2)n1` [1-cyclopropyl-N-((1,2,3,5,6,7-hexahydro-s-indacen-4-yl)carbamoyl)-1H-pyrazole-3-sulfonamide], the IC50 [1, 3] was less than 100 nM.

`CN(C)c1ccc2c(CC(=O)NCCc3ccc(S(=O)(=O)NC(=O)Nc4c5c(cc6c4CCC6)CCC5)cc3)cc(=O)oc2c1` [2-(7-(Dimethylamino)-2-oxo-2H-chromen-4-yl)-N-(4-(N-(1,2,3,5,6,7-hexahydro-s-indacen-4-ylcarbamoyl)sulfamoyl)phenethyl)acetamide] showed an IC50 [1, 3] of less than 1000 nM.

With `NCCCn1cc(CCC(=O)Nc2cccc(S(=O)(=O)NC(=O)Nc3c4c(cc5c3CCC5)CCC4)c2)nn1` [3-(1-(3-aminopropyl)-1H-1,2,3-triazol-4-yl)-N-(3-(N-((1,2,3,5,6,7-hexahydro-s-indacen-4-yl)carbamoyl)sulfamoyl)phenyl)propanamide] the IC50 [1, 3] was less than 1000 nM.

`C#CCNC(=O)CCc1ccc(S(=O)(=O)NC(=O)Nc2c3c(cc4c2CCC4)CCC3)cc1` [3-(4-(N-((1,2,3,5,6,7-hexahydro-s-indacen-4-yl)carbamoyl)sulfamoyl)phenyl)-N-(prop-2-yn-1-yl)propanamide] showed an IC50 [1, 3] of less than 100 nM.

For `NC(=O)c1cccc(S(=O)(=O)NC(=O)Nc2c3c(cc4c2CCC4)CCC3)c1` [3-(N-(1,2,3,5,6,7-Hexahydro-s-indacen-4-ylcarbamoyl)sulfamoyl)benzamide], the IC50 [1, 3] was less than 1000 nM.

Work on `O=C(Nc1c2c(cc3c1CCC3)CCC2)NS(=O)(=O)c1cccc(C(=O)O)c1` [3-(N-((1,2,3,5,6,7-hexahydro-s-indacen-4-yl)carbamoyl)sulfamoyl)benzoic acid] yielded an IC50 [1, 3] of less than 100 nM.

With `O=C(Nc1c2c(cc3c1CCC3)CCC2)NS(=O)(=O)c1cccc(OC(F)F)c1` [3-(difluoromethoxy)-N-((1,2,3,5,6,7-hexahydro-s-indacen-4-yl)carbamoyl)benzenesulfonamide] the IC50 [1, 3] was less than 1000 nM.

For `[N-]=[N+]=Nc1cccc(S(=O)(=O)NC(=O)Nc2c3c(cc4c2CCC4)CCC3)c1` [3-Azido-N-((1,2,3,5,6,7-hexahydro-s-indacen-4-yl)carbamoyl)benzenesulfonamide], the IC50 [1, 3] was less than 1000 nM.

Molecule `COc1cc(NC(=O)NS(=O)(=O)c2cc(C(C)(C)O)co2)c2ncccc2c1` [4-(2-hydroxypropan-2-yl)-N-((6-methoxyquinolin-8-yl)carbamoyl)furan-2-sulfonamide] has an IC50 [1, 3] of less than 10000 nM.

Molecule `CC(C)(O)c1coc(S(=O)(=O)NC(=O)Nc2cccc3cccnc23)c1` [4-(2-hydroxypropan-2-yl)-N-(quinolin-8-ylcarbamoyl)furan-2-sulfonamide] has an IC50 [1, 3] of less than 10000 nM.

Work on `[2H]C([2H])([2H])C(O)(c1cc(S(=O)(=O)NC(=O)Nc2c3c(cc4c2CCO4)CCC3)oc1C)C([2H])([2H])[2H]` [4-(2-hydroxypropan-2-yl-1,1,1,3,3,3-d6)-5-methyl-N-((3,5,6,7-tetrahydro-2H-indeno[5,6-b]furan-4-yl)carbamoyl)furan-2-sulfonamide] yielded an IC50 [1, 3] of less than 100 nM.

For `O=C(Nc1c2c(cc3c1CCC3)CCC2)NS(=O)(=O)c1ccc(Cl)cc1` [4-chloro-N-((1,2,3,5,6,7-hexahydro-s-indacen-4-yl)carbamoyl)benzenesulfonamide], the IC50 [1, 3] was less than 1000 nM.

Molecule `CN(C)Cc1ccc(S(=O)(=O)NC(=O)Nc2c3c(cc4c2CCC4)CCC3)o1` [5-((dimethylamino)methyl)-N-((1,2,3,5,6,7-hexahydro-s-indacen-4-yl)carbamoyl)furan-2-sulfonamide] has an IC50 [1, 3] of less than 100 nM.

Work on `CN(C)c1cccc2c(S(=O)(=O)NC(=O)Nc3c4c(cc5c3CCC5)CCC4)cccc12` [5-(dimethylamino)-N-((1,2,3,5,6,7-hexahydro-s-indacen-4-yl)carbamoyl)naphthalene-1-sulfonamide] yielded an IC50 [1, 3] of less than 1000 nM.

With `CCc1ccc(S(=O)(=O)NC(=O)Nc2c3c(cc4c2CCC4)CCC3)o1` [5-ethyl-N-((1,2,3,5,6,7-hexahydro-s-indacen-4-yl)carbamoyl)furan-2-sulfonamide] the IC50 [1, 3] was less than 1000 nM.

With `CCCCNC(=O)NS(=O)(=O)c1ccc(N)cc1` [Carbutamide, reference compound] the IC50 [1, 4] was greater than 200000 nM.

Work on `CCC1=C(C)CN(C(=O)NCCc2ccc(S(=O)(=O)NC(=O)NC3CCC(C)CC3)cc2)C1=O` (stereo not drawn) [Glimepiride, reference compound] yielded an IC50 [1, 4] of 92000 nM.

Work on `CCC1=C(C)CN(C(=O)NCCc2ccc(S(N)(=O)=O)cc2)C1=O` [Glimespiride precursor, reference compound] yielded an IC50 [1, 4] greater than 200000 nM.

Molecule `Cc1cnc(C(=O)NCCc2ccc(S(N)(=O)=O)cc2)cn1` [Glipizide precursor, reference compound] has an IC50 [1, 4] greater than 50000 nM.

Work on `COc1ccc2c(c1)C(=O)N(CCc1ccc(S(=O)(=O)NC(=O)NC3CCCCC3)cc1)C(=O)C2(C)C` [Gliquidone, N-(cyclohexylcarbamoyl)-4-(2-(7-methoxy-4,4-dimethyl-1,3-dioxo-3,4-dihydroisoquinolin-2(1H)-yl)ethyl)benzenesulfonamide, reference compound] yielded an IC50 [1, 4] of 32000 nM.

With `CC(C)n1ccc(S(=O)(=O)NC(=O)Nc2c3c(cc4c2CCC4)CCC3)n1` [MCC7840, N-((1,2,3,5,6,7-hexahydro-s-indacen-4-yl)carbamoyl)-1-isopropyl-1H-pyrazole-3-sulfonamide] the “area under the curve (AUC) in comparison to MCC950” value [2] was “increased”, the “half-life in comparison to MCC950” value [2] was “extended half-life” and the “maximum concentration (Cmax) in comparison to MCC950” value [2] was “increased maximum concentration (Cmax)”.

`CN(C)S(=O)(=O)c1cccc(S(=O)(=O)NC(=O)Nc2c3c(cc4c2CCC4)CCC3)c1` [N1-((1,2,3,5,6,7-hexahydro-s-indacen-4-yl)carbamoyl)-N3,N3-dimethylbenzene-1,3-disulfonamide] showed an IC50 [1, 3] of less than 100 nM.

`CC(C)(O)c1ccnc(S(=O)(=O)NC(=O)Nc2c3c(cc4c2CCC4)CCC3)c1` [N-(1,2,3,5,6,7-hexahydro-s-indacen-4-ylcarbamoyl)-4-(2-hydroxypropan-2-yl)pyridine-2-sulfonamide] gave an IC50 [1, 3] of less than 100 nM.

`O=C(CCc1cn(CCCNc2ccc([N+](=O)[O-])c3nonc23)nn1)Nc1cccc(S(=O)(=O)NC(=O)Nc2c3c(cc4c2CCC4)CCC3)c1` [N-(3-(N-((1,2,3,5,6,7-hexahydro-s-indacen-4-yl)carbamoyl)sulfamoyl)phenyl)-3-(1-(3-((7-nitrobenzo[c][1,2,5]oxadiazol-4-yl)amino)propyl)-1H-1,2,3-triazol-4-yl)propanamide] gave an IC50 [1, 3] of less than 10000 nM.

Molecule `C#CCCC(=O)Nc1cccc(S(=O)(=O)NC(=O)Nc2c3c(cc4c2CCC4)CCC3)c1` [N-(3-(N-((1,2,3,5,6,7-hexahydro-s-indacen-4-yl)carbamoyl)sulfamoyl)phenyl)pent-4-ynamide] has an IC50 [1, 3] of less than 1000 nM.

Molecule `CN(CC(=O)NCCc1ccc(S(=O)(=O)NC(=O)Nc2c3c(cc4c2CCC4)CCC3)cc1)c1ccc([N+](=O)[O-])c2nonc12` [N-(4-(N-(1,2,3,5,6,7-Hexahydros-indacen-4-ylcarbamoyl)sulfamoyl)phenethyl)-2-(methyl(7-nitrobenzo[c][1,2,5]oxadiazol-4-yl)amino)acetamide] has an IC50 [1, 3] of less than 10000 nM.
